Laboratory results taken from publication PMC12813973, “Consequences of Peptide Macrocyclization Revealed by Virus-Inspired β‑Hairpin Mimetics” (ACS Chemical Biology, 2025).

Target: T1, STAT3 (Homo sapiens, UniProt P40763)
T1 construct: STAT3: the gene encoding full-length STAT3 was codon optimised for expression in; MBP (pEXP-MBP vector) (cleaved yes); His tag (IMAC capture, removed with the fusion by TEV and reverse IMAC) (cleaved yes); made in house; host or cells: E. coli T7 Express
Assay: biochemical
Type: binding
Settings: for KD: analyte 10 µM (1, 3, 5) or 0.5 µM (4, 6), n.b. – no binding observed
Procedure: In such PPIs, the bulk of the binding energy contribution typically stems from backbone interactions, whereas binding specificity is fine-tuned by side-chain contacts. […] We evaluated the binding kinetics of peptides to full-length STAT3 using GCI.
Grating coupled interferometry (GCI)
GCI experiments were performed on a Creoptix WaveDELTA instrument (Malvern Panalytical). Full-length STAT1 or STAT3 were immobilised on a 4PCH chip (Malvern Panalytical #4PCH-03) to a density 2000-8000 pg/mm2 using EDC/NHS activation followed by amine coupling. Briefly, proteins (500 nM) were applied onto an activated chip in 10 mM MES pH 6.5, 20 mM NaCl, after which the chip surface was passivated with 1M ethanolamine, pH 8.0.
The kinetic measurements were perfor med using 20 mM HEPES pH 7.5, 300 mM NaCl, 0.01% Tween-20, 0.0005% DMSO as running buffer. Peptides were tested at 0.5 or 10 μM concentration using the waveRAPID kinetics experiment with the tight binder or intermediate binder mode, respectively.[4] Sensorgrams were fitted in the waveControl software (Malven Panalytical) using the 1:1 kinetic model. […]
GCI sensorgrams depicting RAPID kinetics measurements and fitted kinetic models for peptide binding to full-length STAT3 immobilised on a polycarboxylate hydrogel chip (4PCH). Peptides were applied at 0.5 or 10 μM concentration using the medium or tight binders pulse sequence. The peptides that show negligible Rmax values at 10 μM analyte concentration were classified as non-binding.
(1 picture or pasted object on this page, not shown here)

T1 sequence (P40763 whole entry, species assumed, the tested form may be a part): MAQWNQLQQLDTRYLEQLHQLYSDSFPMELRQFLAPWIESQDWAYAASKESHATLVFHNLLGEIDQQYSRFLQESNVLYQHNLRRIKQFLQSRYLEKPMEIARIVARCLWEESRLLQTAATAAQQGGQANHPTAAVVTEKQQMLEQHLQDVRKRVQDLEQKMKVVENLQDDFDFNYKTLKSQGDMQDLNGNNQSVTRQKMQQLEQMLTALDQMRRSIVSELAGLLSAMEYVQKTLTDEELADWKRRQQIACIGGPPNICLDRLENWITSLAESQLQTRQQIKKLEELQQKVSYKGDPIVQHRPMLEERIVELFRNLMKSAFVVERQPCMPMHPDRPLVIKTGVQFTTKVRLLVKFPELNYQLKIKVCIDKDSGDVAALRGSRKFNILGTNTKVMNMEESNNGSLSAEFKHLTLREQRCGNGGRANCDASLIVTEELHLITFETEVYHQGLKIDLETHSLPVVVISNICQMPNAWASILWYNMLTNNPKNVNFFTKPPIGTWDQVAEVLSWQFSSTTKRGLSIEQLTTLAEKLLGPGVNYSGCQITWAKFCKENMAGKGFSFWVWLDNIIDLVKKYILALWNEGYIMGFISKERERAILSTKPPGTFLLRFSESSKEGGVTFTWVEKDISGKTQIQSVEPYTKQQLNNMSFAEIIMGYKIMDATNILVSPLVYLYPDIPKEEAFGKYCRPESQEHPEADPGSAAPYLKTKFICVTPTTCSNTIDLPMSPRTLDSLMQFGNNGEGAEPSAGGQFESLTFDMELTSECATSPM

CC[C@H](C)[C@H](NC(=O)[C@H](Cc1ccccc1)NC(=O)[C@@H](NC(=O)[C@H](CO)NC(=O)[C@H](Cc1c[nH]c2ccccc12)NC(=O)[C@H](CCSC)NC(C)=O)C(C)C)C(=O)N[C@@H](Cc1c[nH]cn1)C(=O)NCC(=O)N[C@@H](Cc1c[nH]cn1)C(=O)N[C@@H](CC(=O)O)C(=O)NCC(=O)N[C@@H](CO)C(=O)N[C@@H](CC(N)=O)C(=O)N[C@@H](CCCCN)C(=O)NCC(=O)N[C@@H](CO)C(=O)N[C@@H](CCCCN)C(=O)N[C@H](C(=O)N[C@@H](Cc1ccc(O)cc1)C(=O)N[C@H](C(N)=O)[C@@H](C)O)[C@@H](C)O [Peptide 1]
KD (replicate 1 (first listed run, Table S2)): n.b.
KD (replicate 2 (second listed run, Table S2)): n.b.
STAT3 binding (GCI), in words (full-length STAT3, negligible Rmax at 10 μM classified as non-binding): not detected
